Experimental data published in publication PMC9731497, “Identification of potent anti-Cryptosporidium new drug leads by screening traditional Chinese medicines” (PLOS Neglected Tropical Diseases, 2022).
“And” between values parts separate entries of the source, which are not always exact repeats. Equal values may be shown once. Read-outs that look alike come from different tables or passages of the source.

How the values were obtained:
[1] = initial dose-finding doses, 11 consecutive days (S1 Fig)
Method: The growth inhibitory effect of the hit compounds was assessed in a mouse model infected with C. parvum oocysts. In this experiment, four-week-old female SCID mice (Charles River Laboratories, Shizuoka, Japan) were used. In the infected groups, mice were orally inoculated with 1.0 × 10^5 C. parvum oocysts by using sterile gavage needles. Initially, four compounds were tested at different concentrations to figure out the optimum dosages. Six groups of mice were given oral dosages of 50, 25, and 12.5 mg/kg body weight (BW) of two compounds (alisol-A and alisol-B). […] Bufotalin was given orally at three different doses to the other mouse group: 0.1, 0.05, and 0.025 mg/kg BW. […] The positive control group consisted of infected and untreated mice, whereas the negative control group consisted of noninfected and untreated mice. Treatment began on the third day after infection and lasted until the thirteenth day. The body weight and condition were checked every day, and treatment was given based on the body weight. On days 1, 3, 6, 7, 9, 12, 14, fecal samples were taken. The total number of oocysts per gram was calculated after counting the oocysts in the feces using the sugar flotation method. The treated and untreated mice were euthanized by cervical dislocation on day 14, and a thorough necropsy was performed.

C. parvum HNJ-1 strain [2] = experiment: In vitro C. parvum growth inhibition assay (Sporo-Glo staining, fluorescence microscopy count in infected HCT-8 cells); type: cell-based, Cryptosporidium parvum; conditions: for EC50: read-out: EC50 value
Method: The primary screening of compounds for C. parvum was performed as follows: HCT-8 cells were seeded in 96-well plates at a density of 2 × 10^4 cells/well and allowed to grow overnight. Before infecting cells, Cryptosporidium oocysts were excysted to sporozoites. 87 compounds were tested against C. parvum at a single concentration of 1 μM. Each compound was tested once. Infected HCT-8 cells and uninfected HCT-8 cells were used as positive and negative controls, respectively, in medium containing 0.1% DMSO. Nitazoxanide was used as a standard comparative drug. In vitro inhibition assays were carried out as previously described. Briefly, oocysts were suspended in 1 ml of 0.1% sodium hypochlorite in PBS, incubated for 5 min at 4°C, centrifuged for 10 min at 3000 rpm, and washed three times in PBS. The oocysts were then suspended in excystation solution consisting of 0.75% sodium taurocholate and 0.25% trypsin dissolved in 0.1 M phosphate buffer (with 93.4 mM K2HPO4 and 6.5 mM KH2PO4; pH 8.0) and incubated at 37°C for 1 h. The oocyst/sporozoite suspensions were then rinsed in 1 x PBS (with 137 mM NaCl, 2.7 mM KCl, 8 mM Na2HPO4, and 2 mM KH2PO4; pH 7.5) once more before being filtered through a 5-μm pore-size PVDF filter (Millipore, Burlington, MA, USA) with 5 ml syringe to remove the oocyst wall. HCT-8 cells were seeded in 96-well plates (Thermo Fisher Scientific Inc., MA, USA) and incubated overnight. The cells were then infected with C. parvum sporozoites (4 ×10^4 sporozoites/well) containing in RPMI-1640 medium for 3 h. After 3h inoculation, the non-infected parasite or debris were washed with new RPMI-1640 media. At this point, in RPMI-1640 medium containing 1 μM library compounds were added. Infected cells were incubated for an additional 45 h. Following incubation, the infected cells were fixed for 10 minutes in ice-cold 100% methanol at room temperature. Plates were then carefully rinsed 3 times with PBS. The parasite infected cells were then blocked with 1% bovine serum albumin (BSA) in PBS for 30 minutes and then stained with Sporo-Glo (an anti-Cryptosporidium polyclonal antibody) (Waterborne Environmental, Inc., VA, USA) protected from light for 1 h at room temperature. Finally, cells were washed twice with 1 x PBS-T (1 x PBS supplemented with 0.01% Tween). A Keyence BZ-II 9000 was used to capture the images (KEYENCE, Osaka, Japan). The plates were imaged with a HS all-in-one fluorescence microscope using a 20 x objective. The image output was imported into Microsoft excel for data organization and analyses. All C. parvum parasite in the well were counted.
For a second investigation, four selective hit compounds were used to determine the half-maximum inhibitory concentration (EC50). The parasites were treated with various doses of compounds (ranging from 0.008–1 μM). HCT-8 cells (2 × 10^4 cells/well) were grown for 24 h before being infected with 4 × 10^4 C. parvum sporozoites in 96-well plates. […] Sporo-Glo was used for C. parvum staining as described above. Fluorescence microscopy with a Keyence BZ-II 9000 imager was used to count all Cryptosporidium in the wells (KEYENCE, Osaka, Japan). EC50 vales were determined by analyzing dose-response curves made by GraphPad Prism (GraphPad Software, CA, USA).

C. parvum = experiment: Histopathological analysis and immunohistochemistry of ileum of C. parvum-infected mice; type: in vivo, Cryptosporidium parvum; parameters: key to severity of C. parvum infection in ileum, Score: -, no oocysts; 1+, mild focal infection; 2+, moderate multifocal infection; 3+, severe diffuse infection; conditions: HE and immunohistochemistry, most severe area, day 14, dose not stated
Method: (§1) We performed a histopathological analysis to evaluate the growth inhibitory effects and toxicity of the hit compounds in C. parvum-infected mice. In brief, ileum was collected, fixed in 10% neutral buffered formalin, and paraffin-embedded. Each section was cut to a thickness of 4 μm for hematoxylin and eosin (HE) staining and immunohistochemistry. Immunohistochemistry (IHC) was performed following standard techniques using the Envision+ system (Agilent Technologies, Inc., Santa Clara, CA) and 3,3-diaminobenzidine (DAB)(Dojindo, Kumamoto, Japan). Anti-Toxoplasma gondii (RH strain) rabbit polyclonal IgG (Abcam, Cambridge, UK) was used as the primary antibody. The antibody cross reacts with C. Parvum. To reduce the endogenous peroxidase activity, the sections were incubated with 3% H2O2 for 5 minutes. Sections were incubated with primary antibodies overnight at 4°C. After washing with PBS with Tween 20 (PBST), sections were incubated with Envision+ single polymer solution (Agilent Technologies Inc.) for 30 minutes at room temperature. Sections were counterstained with Mayer’s hematoxylin. The severity of C. parvum infection was evaluated in the most severe area, and scored from—to 3+ (-, no oocysts; 1+, mild focal infection; 2+, moderate multifocal infection; 3+, severe diffuse infection). Sub-effects of drugs (hepatocellular damage) were evaluated for major histological changes in karyomegaly, hepatocellular hypertrophy, and interstitial fibrosis/inflammation. We also checked the organs (liver, heart, lung, kidney, and intestines) alteration at necropsy whether it has abnormal or normal.

HCT-8 cells = experiment: Host cell viability assay (Cell-Titer Glo); conditions: HCT-8 cells, 48 h, 1 μM
Method: (§2) HCT-8 cells (4 × 10^4 cells/well) 100 μl were seeded in 96-well plates, cultured for 24 h, and then treated for 48 h with different concentrations of hit compounds (10^1, 1, 10^−1, 10^−2, 10^−3, 10^−4 μM). After a 48-h incubation period, equilibrate the 96-well plates in room temperature (RT) for 30 minutes. Then, equal volume of Cell-Titer Glo (Promega) reagent was added to each treated well, the plate was shaken on an orbital shaker for 2 minutes then incubated for 10 minutes at RT. The luminescence was quantified by the GloMax Navigator plate reader (Promega, Japan) and the cell viability was evaluated as directed by the kit manufacturer. The luminescence signal of control wells containing DMSO was set to 100% cell viability. […] Graph Pad Prism 7.0.1 was used to determine CC50 values.

[3] = Host cell viability assay (Cell-Titer Glo); conditions: human
Method: as §2

C. parvum HNJ-1 strain [4] = experiment: In vivo C. parvum growth inhibition assay (oocyst shedding in feces of infected SCID mice, sugar flotation); parameters: species or system Cryptosporidium parvum; conditions: 11 days; for No. of oocysts, Mean: SCID mice n=3, mean of days 3, 6, 7, 9, 12, 14; for % reduction in oocyst shedding: SCID mice n=3, vs untreated infected control
[5] = Liver histology (sub-effects of drugs, hepatocellular damage) in treated mice; type: in vivo, SCID mice
Method: as §1

Cryptosporidium parvum = conditions: cited from earlier work
[6] = initial dose-finding (S1 Table), 0.1 mg/kg BW, 1 mouse

Structure (SMILES): CC(=O)O[C@H]1C[C@]2(O)[C@@H]3CC[C@@H]4C[C@@H](O)CC[C@]4(C)[C@H]3CC[C@]2(C)[C@H]1c1ccc(=O)oc1 [Bufotalin]
- body weight of treated infected mice [1]: not significant
- EC50 (C. parvum HNJ-1 strain [2]; Cryptosporidium parvum, HCT-8, 45 h): 0.0634 ± 0.0187 µM
- inhibition at 1 µM (C. parvum HNJ-1 strain [2]; Cryptosporidium parvum, HCT-8, 45 h, read-out: Parasite inhibition (%)): 82.9%
- Selectivity index (C. parvum HNJ-1 strain [2]; ratio of CC50 (HCT-8) / EC50 (C. parvum)): 172.3
- severity of C. parvum infection in ileum, Score (C. parvum): 1+
- Host cell viability (%) (HCT-8 cells): 95.1%
- CC50 at 48 h [3]: 10.9 µM
- viability at 48 h, 1 µM ([3]; Host cell viability (%), HCT-8 cells, 48 h, 1 μM): > 95%
- No. of oocysts, Mean (C. parvum HNJ-1 strain [4]; 0.025 mg/kg BW oral): 92.3
- % reduction in oocyst shedding (C. parvum HNJ-1 strain [4]; 0.025 mg/kg BW oral): 58.2%
- No. of oocysts, Mean (C. parvum HNJ-1 strain [4]; 0.05 mg/kg BW oral): 86.6
- % reduction in oocyst shedding (C. parvum HNJ-1 strain [4]; 0.05 mg/kg BW oral): 60.8%
- No. of oocysts, Mean (C. parvum HNJ-1 strain [4]; 0.1 mg/kg BW oral): 48.5
- % reduction in oocyst shedding (C. parvum HNJ-1 strain [4]; 0.1 mg/kg BW oral): 78.1%
- % of oocysts shedding (C. parvum HNJ-1 strain [4]; [6]): 28.8%
- % reduction in oocysts shedding (C. parvum HNJ-1 strain [4]; [6]): 71.2%
- histological findings in liver ([5]; HE stain, infected treated mice (S3 Fig)): inflammation and hepatocellular hypertrophy

Structure (SMILES): CC(=O)Oc1ccccc1C(=O)Nc1ncc([N+](=O)[O-])s1 [Nitazoxanide]
- EC50 (C. parvum HNJ-1 strain [2]; Cryptosporidium parvum, HCT-8, C. parvum, dose-dependent curve of comparative drug (response to reviewers)): 4.14 ± 0.54 µM
- severity of C. parvum infection in ileum, Score (C. parvum): 2+
- No. of oocysts, Mean (C. parvum HNJ-1 strain [4]; 100 mg/kg BW oral): 81.1
- histological findings in liver ([5]; mouse, in vivo): karyomegaly and hepatocellular hypertrophy
- IC50 (Cryptosporidium parvum; ref 30 (Bessoff et al., 2013), read-out: IC50 against Cryptosporidium parvum): ~3.7 µM and 3.7 µM
- EC50 (Cryptosporidium parvum; ref PMID: 22167242, PMID: 29341586, PMID: 30297368, read-out: range of EC50 value): 1.55 to 5.1 µM
